Data from patent publication US9770025B2, “Fungicidal compositions” (Syngenta Participations AG, priority 2013, dated 2017).

Columns and labels:
Assay type in all cases: cell-based
Alternaria solani = Alternaria solani liquid culture growth inhibition; conditions: for (B2) Inhibition (%) / (B4) Inhibition (%) / (B5) Inhibition (%): PDB; for (B2) Inhibition (%): Table 9; for (B4) Inhibition (%): Table 11; for (B5) Inhibition (%): Table 13
Procedure: (§1) Liquid Culture Tests in Well Plates
Mycelia fragments or conidia suspensions of a fungus, prepared either freshly from liquid cultures of the fungus or from cryogenic storage, were directly mixed into nutrient broth. DMSO solutions of the test compound (max. 10 mg/ml) was diluted with 0.025% Tween20 by factor 50 and 10 μl of this solution was pipetted into a microtiter plate (96-well format). […] The test plates were incubated in the dark at 24° C. and 96% rh. The inhibition of fungal growth was determined photometrically and visually after 2-4 days, depending on the pathosystem, and percent antifungal activity relative to the untreated check was calculated.
Alternaria solanil/Liquid Culture:
(§2) Conidia of the fungus from cryogenic storage were directly mixed into nutrient broth (PDB potato dextrose broth). After placing a (DMSO) solution of test compound into a microtiter plate (96-well format), the nutrient broth containing the fungal spores was added.

Pythium ultimum = Pythium ultimum (seedling damping off) liquid culture growth inhibition; conditions: 0.0625 ppm; PDB; Table 10
Procedure: as §1
(§3) Mycelia fragments or conidia suspensions of a fungus, prepared either freshly from liquid cultures of the fungus or from cryogenic storage, were directly mixed into nutrient broth. DMSO solutions of the test compound (max. 10 mg/ml) was diluted with 0.025% Tween20 by factor 50 and 10 μl of this solution was pipetted into a microtiter plate (96-well format). The nutrient broth containing the fungal spores/mycelia fragments was then added to give an end concentration of the tested compound. The test plates were incubated in the dark at 24° C. and 96% rh. The inhibition of fungal growth was determined photometrically and visually after 2-4 days, depending on the pathosystem, and percent antifungal activity relative to the untreated check was calculated.
Pythium ultimum Seedling Damping Off)/Liquid Culture:
Mycelia fragments and oospores of a newly grown liquid culture of the fungus were directly mixed into nutrient broth (PDB potato dextrose broth). After placing a (DMSO) solution of the test compounds into a microtiter plate (96-well format), the nutrient broth containing the fungal mycelia/spore mixture was added.

[1] = test system: Mycosphaerella graminicola (Septoria tritici); assay: Mycosphaerella graminicola (Septoria tritici) liquid culture growth inhibition; conditions: for (B4) Inhibition (%) / (B5) Inhibition (%): PDB; for (B4) Inhibition (%): Table 12; for (B5) Inhibition (%): Table 14
Procedure: as §1, §3
Mycosphaerella graminicola (Septoria tritici)/Liquid Culture:
as §2

Fusarium culmorum = Fusarium culmorum liquid culture growth inhibition; conditions: in PDB
Procedure: as §1, §3
Fusarium culmorum/Liquid Culture:
as §2

[2] = test system: Botryotinia fuckeliana (Botrytis cinerea); assay: Botryotinia fuckeliana (Botrytis cinerea) liquid culture growth inhibition; conditions: in Vogels Broth
Procedure: as §1, §3
Botryotinia fuckeliana (Botrytis cinerea)/Liquid Culture:
Conidia of the fungus from cryogenic storage were directly mixed into nutrient broth (Vogels broth). After placing a (DMSO) solution of test compound into a microtiter plate (96-well format), the nutrient broth containing the fungal spores was added.

[3] = test system: Monographella nivalis (Microdochium nivale); assay: Monographella nivalis (Microdochium nivale) liquid culture growth inhibition
Procedure: as §1, §3
Monographella nivalis (Microdochium nivale)/Liquid Culture:
as §2

Gaeumannomyces graminis = Gaeumannomyces graminis liquid culture growth inhibition; conditions: in PDB
Procedure: as §1, §3
Gaeumannomyces graminis/Liquid Culture:
Mycelial fragments of the fungus from cryogenic storage were directly mixed into nutrient broth (PDB potato dextrose broth). After placing a (DMSO) solution of test compound into a microtiter plate (96-well format), the nutrient broth containing the fungal spores was added.

[4] = Zymoseptoria tritici, read-out: (B10) Inhibition (%)
[5] = Monographella nivalis, read-out: (B10) Inhibition (%)

## C=CCSC(=O)n1c(N)c(-c2ccccc2C)c(=O)n1C(C)C [(B2), fenpyrazamine]
Alternaria solani; 0.0313 ppm
  (B2) Inhibition (%): 0%
Alternaria solani; 0.0625 ppm
  (B2) Inhibition (%): 1%

## Cc1cc(C(F)(F)F)nn1CC(=O)N1CCC(c2nc(C3=NOC(c4c(F)cccc4F)C3)cs2)CC1 (stereo not drawn) [(B4), oxathiapiprolin]
Pythium ultimum
  (B4) Inhibition (%): 61%
[1]; 0.0313 ppm
  (B4) Inhibition (%): 8%
[1]; 0.0625 ppm
  (B4) Inhibition (%): 4%
Alternaria solani; 0.0039 ppm
  (B4) Inhibition (%): 0%
Alternaria solani; 0.0078 ppm
  (B4) Inhibition (%): 4%
Alternaria solani; 0.0156 ppm
  (B4) Inhibition (%): 0%
Alternaria solani; 0.0313 ppm
  (B4) Inhibition (%): 0%

## Cc1ccc(C(=O)NC[C@@H](NC(=O)OCC(F)(F)F)C(C)C)cc1 [(B5), tolprocarb]
[1]; 0.0391 ppm
  (B5) Inhibition (%): 7%
[1]; 0.0781 ppm
  (B5) Inhibition (%): 1%
[1]; 0.1563 ppm
  (B5) Inhibition (%): 4%
[1]; 0.6250 ppm
  (B5) Inhibition (%): 1%
Alternaria solani; 0.0391 ppm
  (B5) Inhibition (%): 0%
Alternaria solani; 0.0781 ppm
  (B5) Inhibition (%): 0%
Alternaria solani; 0.3125 ppm
  (B5) Inhibition (%): 0%

## CO/C=C(/C(=O)OC)c1ccccc1COc1ccc(C(F)(F)F)cc1Cl [(B6), flufenoxystrobin, reference compound]
Fusarium culmorum; 0.0500 ppm
  (B6) Inhibition (%): 5%
Fusarium culmorum; 0.1000 ppm
  (B6) Inhibition (%): 3%
Fusarium culmorum; 0.2000 ppm
  (B6) Inhibition (%): 12%
[2]; 0.0063 ppm
  (B6) Inhibition (%): 17%
[2]; 0.0125 ppm
  (B6) Inhibition (%): 23%
[2]; 0.0250 ppm
  (B6) Inhibition (%): 33%
[1]; 0.0031 ppm, in PDB
  (B6) Inhibition (%): 17%
[1]; 0.0063 ppm, in PDB
  (B6) Inhibition (%): 23%
[1]; 0.0125 ppm, in PDB
  (B6) Inhibition (%): 33%
Alternaria solani; 0.0016 ppm, in PDB
  (B6) Inhibition (%): 6%
Alternaria solani; 0.0063 ppm, in PDB
  (B6) Inhibition (%): 1%
[3]; 0.0008 ppm, in PDB
  (B6) Inhibition (%): 23%
[3]; 0.0016 ppm, in PDB
  (B6) Inhibition (%): 51%

## CC1CC(C)(C)c2c(F)ccc(NC(=O)c3cn(C)nc3C(F)F)c21 (stereo not drawn) [(B9)]
[2]; Botrytis cinerea, 0.0039 ppm, read-out: (B9) Inhibition (%)
  inhibition at 0.0039 ppm: 14%
[2]; Botrytis cinerea, 0.0078 ppm, read-out: (B9) Inhibition (%)
  inhibition at 0.0078 ppm: 19%
[2]; Botrytis cinerea, 0.0156 ppm, read-out: (B9) Inhibition (%)
  inhibition at 0.0156 ppm: 31%
[2]; Botrytis cinerea, 0.0313 ppm, read-out: (B9) Inhibition (%)
  inhibition at 0.0313 ppm: 52%
[1]; Zymoseptoria tritici, 0.0039 ppm, in PDB, read-out: (B9) Inhibition (%)
  inhibition at 0.0039 ppm: 0%
[1]; Zymoseptoria tritici, 0.0156 ppm, in PDB, read-out: (B9) Inhibition (%)
  inhibition at 0.0156 ppm: 0%
[1]; Zymoseptoria tritici, 0.0313 ppm, in PDB, read-out: (B9) Inhibition (%)
  inhibition at 0.0313 ppm: 9%
[1]; Zymoseptoria tritici, 0.0625 ppm, in PDB, read-out: (B9) Inhibition (%)
  inhibition at 0.0625 ppm: 7%
Alternaria solani; Alternaria solani, 0.0078 ppm, in PDB, read-out: (B9) Inhibition (%)
  inhibition at 0.0078 ppm: 0%
Alternaria solani; Alternaria solani, 0.0156 ppm, in PDB, read-out: (B9) Inhibition (%)
  inhibition at 0.0156 ppm: 11%
Alternaria solani; Alternaria solani, 0.0313 ppm, in PDB, read-out: (B9) Inhibition (%)
  inhibition at 0.0313 ppm: 5%
Alternaria solani; Alternaria solani, 0.0625 ppm, in PDB, read-out: (B9) Inhibition (%)
  inhibition at 0.0625 ppm: 22%
[3]; Monographella nivalis, 0.1250 ppm, in PDB, read-out: (B9) Inhibition (%)
  inhibition at 0.125 ppm: 0%
[3]; Monographella nivalis, 0.5000 ppm, in PDB, read-out: (B9) Inhibition (%)
  inhibition at 0.5 ppm: 0%
[3]; Monographella nivalis, 1.0000 ppm, in PDB, read-out: (B9) Inhibition (%)
  inhibition at 1 ppm: 10%

## CCCCc1c(C)c2ccc(OCc3ccccc3/C(=C\OC)C(=O)OC)cc2oc1=O [(B10), coumoxystrobin, reference compound]
Fusarium culmorum; Fusarium culmorum, 0.0500 ppm, read-out: (B10) Inhibition (%)
  inhibition at 0.05 ppm: 12%
Fusarium culmorum; Fusarium culmorum, 0.1000 ppm, read-out: (B10) Inhibition (%)
  inhibition at 0.1 ppm: 8%
Fusarium culmorum; Fusarium culmorum, 0.2000 ppm, read-out: (B10) Inhibition (%)
  inhibition at 0.2 ppm: 11%
[1]; [4]
  inhibition at 0.0016 ppm: 5%
  inhibition at 0.0031 ppm: 13%
  inhibition at 0.0063 ppm: 31%
[3]; [5]
  inhibition at 0.0008 ppm: 46%
  inhibition at 0.0016 ppm: 81%

## CNC(=O)C(OC)c1ccccc1COc1cc(C)ccc1C (stereo not drawn) [(B11), mandestrobin, reference compound]
Fusarium culmorum; 0.1000 ppm
  (B11) Inhibition (%): 0%
Fusarium culmorum; 0.2000 ppm
  (B11) Inhibition (%): 11%
[2]; 0.0016 ppm
  (B11) Inhibition (%): 5%
[2]; 0.0250 ppm
  (B11) Inhibition (%): 0%
[2]; 0.0500 ppm
  (B11) Inhibition (%): 8%
Gaeumannomyces graminis; 0.0500 ppm
  (B11) Inhibition (%): 17%
Gaeumannomyces graminis; 0.1000 ppm
  (B11) Inhibition (%): 53%
Alternaria solani; 0.0008 ppm, in PDB
  (B11) Inhibition (%): 0%
Alternaria solani; 0.0016 ppm, in PDB
  (B11) Inhibition (%): 3%
Alternaria solani; 0.0031 ppm, in PDB
  (B11) Inhibition (%): 0%
Alternaria solani; 0.0063 ppm, in PDB
  (B11) Inhibition (%): 12%
[3]; 0.0250 ppm, in PDB
  (B11) Inhibition (%): 0%

## CC(=O)Oc1c(C)c(C)nc2c(F)cc(C(C)(C)C)cc12 [(B12), tebufloquin, reference compound]
[2]; 0.0313 ppm
  (B12) Inhibition (%): 5%
[2]; 0.1250 ppm
  (B12) Inhibition (%): 0%
Alternaria solani; 0.0156 ppm, in PDB
  (B12) Inhibition (%): 0%
Alternaria solani; 0.0313 ppm, in PDB
  (B12) Inhibition (%): 1%
[3]; 0.2500 ppm, in PDB
  (B12) Inhibition (%): 7%
[3]; 0.5000 ppm, in PDB
  (B12) Inhibition (%): 60%

## COC(=O)N(OC)c1ccccc1COc1nc(Cl)c(Cl)cc1Cl [(B13), triclopyricarb, reference compound]
Fusarium culmorum; 0.0500 ppm
  (B13) Inhibition (%): 11%
Fusarium culmorum; 0.1000 ppm
  (B13) Inhibition (%): 10%
Fusarium culmorum; 0.2000 ppm
  (B13) Inhibition (%): 11%
[2]; (B13) triclopyricarb alone at 0.0125 ppm
  (B13) Inhibition (%): 8%
[2]; (B13) triclopyricarb alone at 0.0250 ppm
  (B13) Inhibition (%): 18%
[3]; (B13) triclopyricarb alone at 0.0016 ppm, in PDB
  (B13) Inhibition (%): 23%
[3]; (B13) triclopyricarb alone at 0.0031 ppm, in PDB
  (B13) Inhibition (%): 51%

## CCN(C)/C=N/c1cc(C)c(Oc2nc(Cc3ccc(Cl)cc3)ns2)cc1C [(B14), N′-[4-[[3-[(4-chlorophenyl)methyl]-1,2,4-thiadiazol-5-yl]oxy]-2,5-dimethylphenyl]-N-ethyl-N-methyl-methanimidamide, reference compound]
[3]; Monographella nivalis, (B14) compound of formula IV alone at 0.2500 ppm, in PDB
  inhibition at 0.25 ppm: 40%
